Measurements taken from paper PMC9866366 (Pharmaceutics, 2023).
Square brackets hold non-standard residues; d marks the D form. Peptide text beside a SMILES is read from it. * marks the point of attachment. Alaψ(CH2NMeCH2CH2OH) = C[C@@H](CN(C)CCO)N*; Cha = N[C@@H](CC1CCCCC1)C(=O)O; Lauroyl = CCCCCCCCCCCC(=O)*; Decanoyl = CCCCCCCCCC(=O)*; Octanoyl = CCCCCCCC(=O)*; Hexanoyl = CCCCCC(=O)*; Aib = CC(C)(N)C(=O)O; Propionyl = CCC(=O)*; Butyryl = CCCC(=O)*

Legend:
BxPC-3 cells [1] = assay: PrestoBlue cell viability assay, comparative cytotoxicity assay under 'low glucose'; format: cell-based, human; settings: 24 h exposure; for IC50: 'low glucose' RPMI 1640 (no glucose added), 50.8 pM to 1 µM, three independent experiments each in technical duplicate; for AUC, PrestoBlue, BxPC-3 / Emax @ 1 µM, PrestoBlue, BxPC-3: 'low glucose', three independent experiments in duplicate; for AUC, PrestoBlue, BxPC-3: area under viability-concentration curve, baseline y = 0; for Emax @ 1 µM, PrestoBlue, BxPC-3: response (percent viability) at highest concentration 1 µM
Text: (§1) Endpoint fluorescence was quantified as described above.

PANC-1 cells [2] = assay: as above; format: cell-based, human; settings: 24 h exposure; for IC50: 'low glucose' DMEM (no glucose added), 457 pM to 9 µM, three independent experiments each in technical duplicate; for AUC, PrestoBlue, PANC-1 / Emax @ 9 µM, PrestoBlue, PANC-1: 'low glucose', three independent experiments in duplicate; for AUC, PrestoBlue, PANC-1: area under viability-concentration curve, baseline y = 0; for Emax @ 9 µM, PrestoBlue, PANC-1: response (percent viability) at highest concentration 9 µM
Text: as §1

BxPC-3 cells [3] = assay: CyQUANT Direct cell proliferation assay, comparative cytotoxicity assay under 'low glucose'; format: cell-based, human; settings: 24 h exposure; for IC50: 'low glucose' RPMI 1640 (no glucose added), 50.8 pM to 1 µM, three independent experiments each in technical duplicate; for AUC, CyQUANT Direct, BxPC-3 / Emax @ 1 µM, CyQUANT Direct, BxPC-3: 'low glucose', three independent experiments in duplicate; for AUC, CyQUANT Direct, BxPC-3: area under viability-concentration curve, baseline y = 0; for Emax @ 1 µM, CyQUANT Direct, BxPC-3: response (percent viability) at highest concentration 1 µM
Text: as §1

PANC-1 cells [4] = assay: as above; format: cell-based, human; settings: 24 h exposure; for IC50: 'low glucose' DMEM (no glucose added), 457 pM to 9 µM, three independent experiments each in technical duplicate; for AUC, CyQUANT Direct, PANC-1 / Emax @ 9 µM, CyQUANT Direct, PANC-1: 'low glucose', three independent experiments in duplicate; for AUC, CyQUANT Direct, PANC-1: area under viability-concentration curve, baseline y = 0; for Emax @ 9 µM, CyQUANT Direct, PANC-1: response (percent viability) at highest concentration 9 µM
Text: as §1

PANC-1 cells [5] = settings: 24 h exposure, medium with or without 5 mM glucose, up to 9 µM
Procedure: Cells were seeded at a density of 25,000 cells/well (BxPC-3) and 30,000 cells/well (PANC-1) in Nunc MicroWell 96-Well Black Optical-Bottom Plates with Polymer Base (total volume: 100 µL). Cells were first incubated overnight at 37 °C, 5% CO2 to permit adherence, after which the medium in each well was aspirated, briefly washed once with 100 µL/well of PBS (pH 7.4) and replaced with 100 µL of either RPMI 1640 (BxPC-3, #11879020) or DMEM (PANC-1, #11966025) supplemented with or without 5 mM glucose to create the ‘normal glucose’ and ‘low glucose’ media, respectively. This 5 mM glucose concentration was selected to reflect the physiological concentration of glucose in plasma. Each well was then exposed to the peptides in duplicate at a concentration range of 50.8 pM to 1 µM (BxPC-3) or 457 pM to 9 µM (PANC-1) for 24 h (threefold serial dilution in the corresponding ‘normal glucose’ or ‘low glucose’ media, ten steps). Endpoint fluorescence was quantified as described above.
Blank correction (wells containing medium only) was first performed on the raw fluorescence–concentration data from the plate reader. Cell viability was then calculated as a percentage by normalizing to the fluorescence of the wells containing the lowest drug concentration (50.8 pM for BxPC-3, 457 pM for PANC-1). The resulting data from three independent experiments (each in technical duplicate) was then plotted on GraphPad Prism 9 and analyzed using the built-in ‘[Inhibitor] vs. response—Variable slope (four parameters)’ equation.

BxPC-3 cells [6] = assay: Initial cytotoxicity assay (PrestoBlue and CyQUANT Direct Confirmation Assay), 25 mM glucose; format: cell-based, human; settings: 3-day (72 h) incubation, RPMI-1640 with 25 mM glucose, up to highest concentration tested of 1 µM, both viability assays
Procedure: The CyQUANT™ Direct Cell Proliferation Assay was subsequently performed by mixing the CyQUANT™ Direct nucleic acid stain, CyQUANT™ Direct background suppressor I, and PBS (pH 7.4) as per the vendor instructions, then adding 100 µL of this mixture into each well. The plate was returned into the incubator for a further 1 h, and the endpoint fluorescence bottom-read at the Ex/Em wavelength of 485/538 nm on the SpectraMax iD3 plate reader. Blank wells (medium only) and two negative controls—(1) cells + medium, (2) cells + medium + 0.3% v/v DMSO (equivalent to 1 µM peptide)—were set up in the plate for each experiment.

Compound	IC50 (BxPC-3 cells [1])	AUC, PrestoBlue, BxPC-3 (BxPC-3 cells [1])	Emax @ 1 µM, PrestoBlue, BxPC-3 (BxPC-3 cells [1])	IC50 (PANC-1 cells [2])	AUC, PrestoBlue, PANC-1 (PANC-1 cells [2])	Emax @ 9 µM, PrestoBlue, PANC-1 (PANC-1 cells [2])	IC50 (BxPC-3 cells [3])	AUC, CyQUANT Direct, BxPC-3 (BxPC-3 cells [3])	Emax @ 1 µM, CyQUANT Direct, BxPC-3 (BxPC-3 cells [3])	IC50 (PANC-1 cells [4])	AUC, CyQUANT Direct, PANC-1 (PANC-1 cells [4])	Emax @ 9 µM, CyQUANT Direct, PANC-1 (PANC-1 cells [4])	Cytotoxicity against PANC-1 under 'low glucose' vs 'normal glucose' (in words) (PANC-1 cells [5])	Inhibition of proliferation of BxPC-3 cells (in words) (BxPC-3 cells [6])
CCCCCC(=O)N1CCC[C@H]1C(=O)N[C@@H](CC1CCCCC1)C(=O)NC(C)(C)C(=O)NC(C)(C)C(=O)N[C@H](C(=O)N[C@H](C(=O)NC(C)(C)C(=O)NC(C)(C)C(=O)N[C@@H](C)CN(C)CCO)C(C)C)[C@@H](C)CC [(16)] (Hexanoyl-P[Cha][Aib][Aib]IV[Aib][Aib]-{Alaψ(CH2NMeCH2CH2OH)})	400 nM	5.0 ×10^−5	7.1%	500 nM	24.3 ×10^−5	7.7%	400 nM	5.2 ×10^−5	21.0%	2000 nM	42.1 ×10^−5	41.0%	–	–
CCCCCCCC(=O)N1CCC[C@H]1C(=O)N[C@@H](CC1CCCCC1)C(=O)NC(C)(C)C(=O)NC(C)(C)C(=O)N[C@H](C(=O)N[C@H](C(=O)NC(C)(C)C(=O)NC(C)(C)C(=O)N[C@@H](C)CN(C)CCO)C(C)C)[C@@H](C)CC [(17)] (Octanoyl-P[Cha][Aib][Aib]IV[Aib][Aib]-{Alaψ(CH2NMeCH2CH2OH)})	400 nM	5.1 ×10^−5	20.0%	600 nM	25.5 ×10^−5	8.1%	500 nM	5.6 ×10^−5	33.5%	2000 nM	43.7 ×10^−5	31.6%	–	–
CCCCCCCCCC(=O)N1CCC[C@H]1C(=O)N[C@@H](CC1CCCCC1)C(=O)NC(C)(C)C(=O)NC(C)(C)C(=O)N[C@H](C(=O)N[C@H](C(=O)NC(C)(C)C(=O)NC(C)(C)C(=O)N[C@@H](C)CN(C)CCO)C(C)C)[C@@H](C)CC [(18)] (Decanoyl-P[Cha][Aib][Aib]IV[Aib][Aib]-{Alaψ(CH2NMeCH2CH2OH)})	200 nM	3.3 ×10^−5	5.5%	200 nM	22.2 ×10^−5	3.3%	200 nM	3.9 ×10^−5	30.0%	2200 nM	44.7 ×10^−5	41.7%	–	–
CC[C@H](C)[C@H](NC(=O)C(C)(C)NC(=O)C(C)(C)NC(=O)[C@H](CC1CCCCC1)NC(=O)[C@@H]1CCCN1C(C)=O)C(=O)N[C@H](C(=O)NC(C)(C)C(=O)NC(C)(C)C(=O)N[C@@H](C)CN(C)CCO)C(C)C [(13)] (Ac-P[Cha][Aib][Aib]IV[Aib][Aib]-{Alaψ(CH2NMeCH2CH2OH)})	> 1000 nM	9.5 ×10^−5	94.0%	6000 nM	58.9 ×10^−5	34.6%	> 1000 nM	11 ×10^−5	111.3%	8500 nM	67.8 ×10^−5	48.1%	sufficient to induce cytotoxic effects	–
CCCCCCCCCCCC(=O)N1CCC[C@H]1C(=O)N[C@@H](CC1CCCCC1)C(=O)NC(C)(C)C(=O)NC(C)(C)C(=O)N[C@H](C(=O)N[C@H](C(=O)NC(C)(C)C(=O)NC(C)(C)C(=O)N[C@@H](C)CN(C)CCO)C(C)C)[C@@H](C)CC [(19)] (Lauroyl-P[Cha][Aib][Aib]IV[Aib][Aib]-{Alaψ(CH2NMeCH2CH2OH)})	100 nM	1.6 ×10^−5	4.6%	200 nM	21.4 ×10^−5	4.7%	100 nM	2.6 ×10^−5	18.3%	800 nM	38.9 ×10^−5	26.4%	–	–
CCCC(=O)N1CCC[C@H]1C(=O)N[C@@H](CC1CCCCC1)C(=O)NC(C)(C)C(=O)NC(C)(C)C(=O)N[C@H](C(=O)N[C@H](C(=O)NC(C)(C)C(=O)NC(C)(C)C(=O)N[C@@H](C)CN(C)CCO)C(C)C)[C@@H](C)CC [(15)] (Butyryl-P[Cha][Aib][Aib]IV[Aib][Aib]-{Alaψ(CH2NMeCH2CH2OH)})	500 nM	5.8 ×10^−5	16.3%	900 nM	33.6 ×10^−5	31.0%	500 nM	5.8 ×10^−5	33.8%	4800 nM	50.3 ×10^−5	53.7%	–	–
CCC(=O)N1CCC[C@H]1C(=O)N[C@@H](CC1CCCCC1)C(=O)NC(C)(C)C(=O)NC(C)(C)C(=O)N[C@H](C(=O)N[C@H](C(=O)NC(C)(C)C(=O)NC(C)(C)C(=O)N[C@@H](C)CN(C)CCO)C(C)C)[C@@H](C)CC [(14)] (Propionyl-P[Cha][Aib][Aib]IV[Aib][Aib]-{Alaψ(CH2NMeCH2CH2OH)})	600 nM	6.8 ×10^−5	25.1%	1800 nM	38.4 ×10^−5	31.5%	600 nM	6.8 ×10^−5	27.3%	7000 nM	51.8 ×10^−5	51.5%	–	–
trichoderin A [(3)]	400 nM	5.4 ×10^−5	3.6%	300 nM	21.7 ×10^−5	4.7%	400 nM	4.9 ×10^−5	19.6%	1500 nM	41.0 ×10^−5	28.2%	–	only partially inhibited the proliferation
